In patent publication US20250136607A1 (REGOR PHARMACEUTICALS, INC., priority 2021, published 2025) one finds IC50 data, which are given here for 22 molecules.

In the assay the target is Protein arginine deiminase 4 (PAD4) (Homo sapiens, UniProt Q9UM07). Briefly: PAD4 ammonia release assay. The class given is biochemical. In outline: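 Ammonia release from BAEE substrate (2× mix 600 μM) was measured after 60 min at RT, following 15 min enzyme–compound preincubation (PAD4 2× 20 nM; pH 8.0 HEPES, 2 mM CaCl2, TCEP; 1.25% DMSO). Detection used OPA/DTT/EDTA for 120 min. % inhibition was taken versus reference-compound and DMSO controls; IC50 by four-parameter logistic fit.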

Setting [1] is: PAD4 activity comparison, read-out: PAD4 Ammonia assay IC50.
The mark [2] stands for this setting: PAD4 ammonia release assay, BAEE substrate, 60 min at RT, read-out: Average IC50 Abs.

Where two headings read alike, the source gives them in different places.

Sequence of Protein arginine deiminase 4 (PAD4) (Q9UM07 whole entry): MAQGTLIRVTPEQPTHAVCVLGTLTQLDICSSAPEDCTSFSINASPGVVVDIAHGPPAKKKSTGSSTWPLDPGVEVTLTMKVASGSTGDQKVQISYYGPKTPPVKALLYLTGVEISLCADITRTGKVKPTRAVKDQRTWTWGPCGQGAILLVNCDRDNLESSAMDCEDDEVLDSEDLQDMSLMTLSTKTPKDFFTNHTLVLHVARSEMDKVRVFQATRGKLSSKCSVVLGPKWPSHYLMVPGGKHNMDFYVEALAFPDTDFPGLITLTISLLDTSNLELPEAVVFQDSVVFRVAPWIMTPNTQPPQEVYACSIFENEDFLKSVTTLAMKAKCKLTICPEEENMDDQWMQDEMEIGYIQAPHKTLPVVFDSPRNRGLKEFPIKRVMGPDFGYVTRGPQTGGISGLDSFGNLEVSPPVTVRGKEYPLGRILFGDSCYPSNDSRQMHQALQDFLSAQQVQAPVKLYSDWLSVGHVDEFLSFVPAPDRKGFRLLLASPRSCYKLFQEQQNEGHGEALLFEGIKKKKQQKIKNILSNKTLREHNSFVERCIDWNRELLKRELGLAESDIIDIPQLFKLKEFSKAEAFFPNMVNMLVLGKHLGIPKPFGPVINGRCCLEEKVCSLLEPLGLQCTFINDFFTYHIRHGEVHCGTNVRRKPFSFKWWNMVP

As for `CC1CNc2cccc3cc(-c4nc5cc(C(=O)N6C[C@H]7CC[C@@H]6[C@@H]7N)ccc5n4C)n1c23` (stereo partly drawn) [Example 169, ((1R,4R,7R)-7-amino-2-azabicyclo[2.2.1]heptan-2-yl)(1-methyl-2-(3-methyl-2,3-dihydro-1H-pyrrolo[1,2,3-de]quinoxalin-5-yl)-1H-benzo[d]imidazol-5-yl)methanone], the IC50 is 550 nM under setting [1] and 500 to 5000 nM under setting [2].
As for `CCC1CN(CCO)c2cccc3cc(-c4nc5cc(C(=O)N6C[C@H](N)C[C@@H](F)C6)cc(OC)c5n4C)n1c23` (stereo partly drawn) [Example 79, ((3R,5R)-3-amino-5-fluoropiperidin-1-yl)(2-(3-ethyl-1-(2-hydroxyethyl)-2,3-dihydro-1H-pyrrolo[1,2,3-de]quinoxalin-5-yl)-7-methoxy-1-methyl-1H-benzo[d]imidazol-5-yl)methanone], the IC50 under setting [2] was 100 to 500 nM.
Still for that read-out and setting: then `CCn1cc(Cn2c(-c3cc4cccc5c4n3CCN5CCCOC)nc3cc(C(=O)N4C[C@H](N)C[C@@H](F)C4)cc(F)c32)cn1` [Example 41, ((3R,5R)-3-amino-5-fluoropiperidin-1-yl)(1-((1-ethyl-1H-pyrazol-4-yl)methyl)-7-fluoro-2-(1-(3-methoxypropyl)-2,3-dihydro-1H-pyrrolo[1,2,3-de]quinoxalin-5-yl)-1H-benzo[d]imidazol-5-yl)methanone], with 100 to 500 nM; and `Cn1c(-c2cc3ccc(C#N)c4c3n2[C@H](C2CC2)CN4)nc2cc(C(=O)N3C[C@H]4CC[C@@H]3[C@@H]4N)cc(F)c21` (single isomer, unassigned) [Example 116], with 500 to 5000 nM.
The same measure, in the same setting: as for `CN1C(=O)Cc2c1ccc1cc(-c3nc4cc(C(=O)N5C[C@H]6CC[C@@H]5[C@@H]6N)cc(F)c4n3C)n(CC3CC3)c21` [Example 146, 2-(5-((1R,4R,7R)-7-amino-2-azabicyclo[2.2.1]heptane-2-carbonyl)-7-fluoro-1-methyl-1H-benzo[d]imidazol-2-yl)-1-(cyclopropylmethyl)-6-methyl-6,8-dihydropyrrolo[2,3-e]indol-7(1H)-one], the figure is more than 5000 nM.
For the molecule `CCC1CN(CCC(C)(C)O)c2cccc3cc(-c4nc5cc(C(=O)N6C[C@H](N)C[C@@H](F)C6)cc(OC)c5n4C)n1c23` (stereo partly drawn) [Example 83, ((3R,5R)-3-amino-5-fluoropiperidin-1-yl)(2-(3-ethyl-1-(3-hydroxy-3-methylbutyl)-2,3-dihydro-1H-pyrrolo[1,2,3-de]quinoxalin-5-yl)-7-methoxy-1-methyl-1H-benzo[d]imidazol-5-yl)methanon], the IC50 under setting [2] was 100 to 500 nM.
Same read-out and setting: as for `Cn1c(-c2cc3cc(C#N)cc4c3n2[C@@H](C2CC2)CN4)nc2cc(C(=O)N3C[C@H]4CC[C@@H]3[C@@H]4N)cc(F)c21` [Example 118, (S)-5-(5-((1R,4R,7R)-7-amino-2-azabicyclo[2.2.1]heptane-2-carbonyl)-7-fluoro-1-methyl-1H-benzo[d]imidazol-2-yl)-3-cyclopropyl-2,3-dihydro-1H-pyrrolo[1,2,3-de]quinoxaline-8-carbonitrile], the figure is 100 to 500 nM.
Same read-out and setting: then `Cn1c(-c2cc3ccn4c(=O)[nH]nc4c3n2CC2CC2)nc2cc(C(=O)N3C[C@H]4CC[C@@H]3[C@@H]4N)cc(F)c21` [Example 160, 8-(5-((1R,4R,7R)-7-amino-2-azabicyclo[2.2.1]heptane-2-carbonyl)-7-fluoro-1-methyl-1H-benzo[d]imidazol-2-yl)-9-(cyclopropylmethyl)-2,9-dihydro-3H-pyrrolo[2,3-c][1,2,4]triazolo[4,3-a]pyridin-3-one], with 500 to 5000 nM; and `COc1cc(C(=O)N2C[C@H]3CC[C@@H]2[C@@H]3N)cc2nc(-c3cc4cccc5c4n3CCN5CCO)n(C)c12` [Example 11, ((1R,4R,7R)-7-amino-2-azabicyclo[2.2.1]heptan-2-yl)(2-(1-(2-hydroxyethyl)-2,3-dihydro-1H-pyrrolo[1,2,3-de]quinoxalin-5-yl)-7-methoxy-1-methyl-1H-benzo[d]imidazol-5-yl)methanone], with 500 to 5000 nM; and `COc1cc(C(=O)N2CCC[C@@H](N)C2)cc2nc(-c3cc4cccc5c4n3CCN5Cc3ccccc3)n(C)c12` [Example 24, (R)-(3-aminopiperidin-1-yl)(2-(1-benzyl-2,3-dihydro-1H-pyrrolo[1,2,3-de]quinoxalin-5-yl)-7-methoxy-1-methyl-1H-benzo[d]imidazol-5-yl)methanone], with more than 5000 nM.
Same read-out and setting: then `CCC1CNc2nccc3cc(-c4nc5cc(C(=O)N6C[C@H](N)C[C@@H](F)C6)cc(F)c5n4C)n1c23` (stereo partly drawn) [Example 136, ((3R,5R)-3-amino-5-fluoropiperidin-1-yl)(2-(3-ethyl-4,5-dihydro-3H-2a, 5,6-triazaacenaphthylen-2-yl)-7-fluoro-1-methyl-1H-benzo[d]imidazol-5-yl)methanone], with more than 5000 nM; and `COc1cc(C(=O)N2CC(F)(F)C3(CNC3)C2)cc2nc(-c3cc4cccc5c4n3CCN5CCCO)n(CC3CC3)c12` [Example 57, (1-(cyclopropylmethyl)-2-(1-(3-hydroxypropyl)-2,3-dihydro-1H-pyrrolo[1,2,3-de]quinoxalin-5-yl)-7-methoxy-1H-benzo[d]imidazol-5-yl)(8,8-difluoro-2,6-diazaspiro[3.4]octan-6-yl)methanone], with more than 5000 nM.
For the molecule `CCC1CNc2c(C#N)ccc3cc(-c4nc5cc(C(=O)N6C[C@H]7CC[C@@H]6[C@@H]7N)cc(F)c5n4C)n1c23` (stereo partly drawn) [Example 128, 5-(5-((1R,4R,7R)-7-amino-2-azabicyclo[2.2.1]heptane-2-carbonyl)-7-fluoro-1-methyl-1H-benzo[d]imidazol-2-yl)-3-ethyl-2,3-dihydro-1H-pyrrolo[1,2,3-de]quinoxaline-9-carbonitrile], the IC50 under setting [2] lay in the range of 100 to 500 nM.
With `COc1cc(C(=O)N2CCC[C@@H](N)C2)cc2nc(-c3cc4cccc5c4n3CCN5C(=O)c3ccccc3)n(C)c12` [Example 31, (R)-(3-aminopiperidin-1-yl)(2-(1-benzoyl-2,3-dihydro-1H-pyrrolo[1,2,3-de]quinoxalin-5-yl)-7-methoxy-1-methyl-1H-benzo[d]imidazol-5-yl)methanone], under setting [2], the IC50 is more than 5000 nM.
Turning to `COc1cc(C(=O)N2C[C@H]3CC[C@@H]2[C@@H]3N)cc2nc(-c3cc4cccc5c4n3CCN5CCCNC(=O)NC3CC3)n(C)c12` [Example 6, 1-(3-(5-(5-((1R,4R,7R)-7-amino-2-azabicyclo[2.2.1]heptane-2-carbonyl)-7-methoxy-1-methyl-1H-benzo[d]imidazol-2-yl)-2,3-dihydro-1H-pyrrolo[1,2,3-de]quinoxalin-1-yl)propyl)-3-cyclopropylurea], under setting [2], the IC50 fell in the range of 500 to 5000 nM.
Same read-out and setting: then `CC(C)N1CCc2c(ccc3cc(-c4nc5cc(C(=O)N6C[C@H]7CC[C@@H]6[C@@H]7N)cc(F)c5n4C)n(CC4CC4)c23)C1` [Example 154, ((1R,4R,7R)-7-amino-2-azabicyclo[2.2.1]heptan-2-yl)(2-(1-(cyclopropylmethyl)-7-isopropyl-6,7,8,9-tetrahydro-1H-pyrrolo[2,3-f]isoquinolin-2-yl)-7-fluoro-1-methyl-1H-benzo[d]imidazol-5-yl)methanone], with 500 to 5000 nM.
With `Cn1c(-c2cc3cccc4c3n2CCN4)nc2cc(C(=O)N3CCC[C@@H](N)C3)ccc21` [Example 166, (R)-(3-aminopiperidin-1-yl)(2-(2,3-dihydro-1H-pyrrolo[1,2,3-de]quinoxalin-5-yl)-1-methyl-1H-benzo[d]imidazol-5-yl)methanone], the IC50 is 9530 nM under setting [1] and more than 5000 nM under setting [2].
For `CC[C@@H]1CN(CCCO)c2cccc3cc(-c4nc5cc(C(=O)N6C[C@H]7CC[C@@H]6[C@@H]7N)cc(F)c5n4C)n1c23` [Example 70, ((1R,4R,7R)-7-amino-2-azabicyclo[2.2.1]heptan-2-yl)(2-((R)-3-ethyl-1-(3-hydroxypropyl)-2,3-dihydro-1H-pyrrolo[1,2,3-de]quinoxalin-5-yl)-7-fluoro-1-methyl-1H-benzo[d]imidazol-5-yl)methanone], the IC50 under setting [2] was more than 5000 nM.
Same read-out and setting: as for `Cn1c(-c2cc3cccc4c3n2C(C2CC2)CN4)nc2cc(C(=O)N3C[C@H]4CC[C@@H]3[C@@H]4N)cc(F)c21` (mixture of isomers) [Example 108, ((1R,4R,7R)-7-amino-2-azabicyclo[2.2.1]heptan-2-yl)(2-(3-cyclopropyl-2,3-dihydro-1H-pyrrolo[1,2,3-de]quinoxalin-5-yl)-7-fluoro-1-methyl-1H-benzo[d]imidazol-5-yl)methanone], the figure is not above 100 nM; as for `CCC1CNc2c(F)ccc3cc(-c4nc5cc(C(=O)N6C[C@H]7CC[C@@H]6[C@@H]7N)cc(F)c5n4C)n1c23` (stereo partly drawn) [Example 131, ((1R,4R,7R)-7-amino-2-azabicyclo[2.2.1]heptan-2-yl)(2-(3-ethyl-9-fluoro-2,3-dihydro-1H-pyrrolo[1,2,3-de]quinoxalin-5-yl)-7-fluoro-1-methyl-1H-benzo[d]imidazol-5-yl)methanone], 100 to 500 nM.
Same read-out and setting: as for `COc1cc(-n2cc3c(n2)CCC(N)C3)cc2nc(-c3cc4cccc5c4n3CCN5CCCO)n(C)c12` (stereo not drawn) [Example 62, 3-(5-(5-(5-amino-4,5,6,7-tetrahydro-2H-indazol-2-yl)-7-methoxy-1-methyl-1H-benzo[d]imidazol-2-yl)-2,3-dihydro-1H-pyrrolo[1,2,3-de]quinoxalin-1-yl)propan-1-ol], the figure is more than 5000 nM; as for `COc1cc(C(=O)N2C[C@H]3CC[C@@H]2[C@@H]3N)cc2nc(-c3cc4cccc5c4n3C(C3CC3)CN5)c(C)n12` (stereo partly drawn) [Example 170, ((1R,4R,7R)-7-amino-2-azabicyclo[2.2.1]heptan-2-yl)(2-(3-cyclopropyl-2,3-dihydro-1H-pyrrolo[1,2,3-de]quinoxalin-5-yl)-5-methoxy-3-methylimidazo[1,2-a]pyridin-7-yl)methanone], more than 5000 nM.

As a reminder, the IC50 is the concentration that gives 50% inhibition.
